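Following 48 hours of exposure in 96-well plates, responses at five concentrations were used to interpolate endpoints linearly. The concentration for 50% growth inhibition is given as GI50.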 The source made the active and inactive calls. Cut-off read from the data, not from the text of the source: active = GI50 up to about 1.1 µM and inactive = higher.
Columns and labels:
Test in all cases: NCI-60 cell line screen, 48 h
HOP-62 = system: HOP-62
NCI-H460 = system: NCI-H460
MOLT-4 = system: MOLT-4
OVCAR-8 = system: OVCAR-8
UACC-257 = system: UACC-257
TK-10 = system: TK-10
NCI-H226 = system: NCI-H226
OVCAR-3 = system: OVCAR-3
SW-620 = system: SW-620
SNB-19 = system: SNB-19
SK-MEL-2 = system: SK-MEL-2
RXF 393 = system: RXF 393
LOX IMVI = system: LOX IMVI
HOP-92 = system: HOP-92
SK-MEL-5 = system: SK-MEL-5
SF-268 = system: SF-268
HCC 2998 = system: HCC 2998

Measured: GI50

O=C1[C@H]2C(c3ccccc3)=NN(C(=O)c3ccccc3)[C@H]2C(=O)N1c1ccccc1
inactive: HOP-62 > 100 µM | NCI-H460 > 100 µM | MOLT-4 > 100 µM | OVCAR-8 > 100 µM | UACC-257 > 100 µM | TK-10 > 100 µM | NCI-H226 > 100 µM | OVCAR-3 > 100 µM | SW-620 > 100 µM | SNB-19 > 100 µM | SK-MEL-2 > 100 µM | RXF 393 > 100 µM | LOX IMVI > 100 µM

Cc1oc2c(C)c(O)c3c(c2c1C1(C)OCCO1)C(=O)C=C(Cl)C3=O
inactive: HOP-62 > 100 µM | NCI-H460 > 100 µM | MOLT-4 > 100 µM | OVCAR-8 > 100 µM | HOP-92 > 100 µM | UACC-257 > 100 µM | TK-10 > 100 µM | SK-MEL-5 > 100 µM | NCI-H226 > 100 µM | OVCAR-3 > 100 µM | SW-620 > 100 µM | SF-268 > 100 µM | SNB-19 > 100 µM | SK-MEL-2 > 100 µM | RXF 393 > 100 µM | LOX IMVI > 100 µM

N#CC(C#N)=Cc1ccc(CP(=O)(O)O)cc1
inactive: HOP-62 > 100 µM | NCI-H460 > 100 µM | MOLT-4 > 100 µM | OVCAR-8 > 100 µM | HOP-92 > 100 µM | UACC-257 > 100 µM | TK-10 > 100 µM | SK-MEL-5 > 100 µM | NCI-H226 > 100 µM | OVCAR-3 > 100 µM | SW-620 > 100 µM | SF-268 > 100 µM | SNB-19 > 100 µM | SK-MEL-2 > 100 µM | LOX IMVI > 100 µM | HCC 2998 > 100 µM

CN(C)c1ccc(-c2cc(O)c3ccccc3n2)cc1
inactive: HOP-62 > 100 µM | NCI-H460 > 100 µM | MOLT-4 > 100 µM | OVCAR-8 > 100 µM | UACC-257 > 100 µM | TK-10 > 100 µM | NCI-H226 > 100 µM | OVCAR-3 > 100 µM | SW-620 > 100 µM | SF-268 > 100 µM | SNB-19 > 100 µM | RXF 393 > 100 µM | LOX IMVI > 100 µM | HCC 2998 > 100 µM

Cc1ccc(NC(=O)C(=O)C2C(=O)N(c3ccccc3)N=C2N)cc1C (centres undefined)
inactive: HOP-62 > 100 µM | MOLT-4 > 100 µM | OVCAR-8 > 100 µM | HOP-92 > 100 µM | UACC-257 > 100 µM | TK-10 > 100 µM | SK-MEL-5 > 100 µM | NCI-H226 > 100 µM | OVCAR-3 > 100 µM | SW-620 > 100 µM | SF-268 > 100 µM | SNB-19 > 100 µM | HCC 2998 > 100 µM

CC(=O)OCC1OC(OC(C)=O)C(NC#N)C(OC(C)=O)C1OC(C)=O (centres undefined)
inactive: HOP-62 > 100 µM | NCI-H460 68.1 µM | MOLT-4 86.5 µM | OVCAR-8 > 100 µM | HOP-92 > 100 µM | TK-10 > 100 µM | SK-MEL-5 73.1 µM | OVCAR-3 > 100 µM | SW-620 > 100 µM | SF-268 > 100 µM | SNB-19 > 100 µM | SK-MEL-2 50.7 µM | RXF 393 > 100 µM | LOX IMVI 39.2 µM | HCC 2998 > 100 µM

ICC1CCCO1 (centres undefined)
inactive: NCI-H460 > 100 µM | MOLT-4 > 100 µM | OVCAR-8 > 100 µM | HOP-92 > 100 µM | UACC-257 > 100 µM | TK-10 > 100 µM | SK-MEL-5 > 100 µM | NCI-H226 > 100 µM | SW-620 > 100 µM | SF-268 > 100 µM | SNB-19 > 100 µM | SK-MEL-2 > 100 µM | RXF 393 > 100 µM | LOX IMVI > 100 µM | HCC 2998 > 100 µM

O=S1(=O)C[C@H](O)[C@H](O)CS1
inactive: HOP-62 > 100 µM | NCI-H460 > 100 µM | MOLT-4 > 100 µM | OVCAR-8 > 100 µM | HOP-92 > 100 µM | UACC-257 > 100 µM | TK-10 > 100 µM | SK-MEL-5 > 100 µM | NCI-H226 > 100 µM | OVCAR-3 > 100 µM | SW-620 > 100 µM | SF-268 > 100 µM | SNB-19 > 100 µM | RXF 393 > 100 µM | LOX IMVI > 100 µM | HCC 2998 > 100 µM

COc1ccc(N2C(=O)C3c4[nH]c5ccccc5c4C4CC(C)CC(C)C4C3C2=O)cc1 (centres undefined)
inactive: HOP-62 > 100 µM | MOLT-4 > 100 µM | OVCAR-8 > 100 µM | HOP-92 > 100 µM | UACC-257 > 100 µM | SK-MEL-5 > 100 µM | NCI-H226 > 100 µM | SW-620 > 100 µM | SF-268 > 100 µM | SNB-19 > 100 µM | RXF 393 > 100 µM | HCC 2998 > 100 µM

Cc1cc(N(CCC#N)CCC#N)ccc1/N=N/c1cccc(Cl)c1
inactive: HOP-62 86.5 µM | NCI-H460 5.75 µM | OVCAR-8 > 100 µM | HOP-92 20.7 µM | UACC-257 > 100 µM | TK-10 > 100 µM | SK-MEL-5 > 100 µM | NCI-H226 > 100 µM | OVCAR-3 > 100 µM | SW-620 > 100 µM | SNB-19 51.8 µM | SK-MEL-2 > 100 µM | RXF 393 75 µM

O=CN/C=C\c1cc(O)ccc1O
inactive: HOP-62 18.6 µM | NCI-H460 10 µM | MOLT-4 18.2 µM | OVCAR-8 15.6 µM | HOP-92 14.2 µM | UACC-257 11.7 µM | TK-10 > 46.2 µM | SK-MEL-5 7.59 µM | NCI-H226 14.5 µM | OVCAR-3 12.2 µM | SW-620 12.6 µM | SF-268 22.5 µM | SNB-19 > 100 µM | SK-MEL-2 > 48.9 µM | LOX IMVI 7.23 µM | HCC 2998 > 100 µM

CC1=C(C(=O)NNS(=O)(=O)c2ccc(C)cc2)CC(C(=O)NNS(=O)(=O)c2ccc(C)cc2)=C(C)N1
inactive: HOP-62 > 100 µM | NCI-H460 > 100 µM | MOLT-4 46.8 µM | OVCAR-8 > 100 µM | UACC-257 > 100 µM | TK-10 56.4 µM | NCI-H226 > 100 µM | OVCAR-3 > 100 µM | SW-620 > 100 µM | SF-268 > 100 µM | SNB-19 > 100 µM | SK-MEL-2 > 100 µM | RXF 393 92.7 µM | LOX IMVI > 100 µM | HCC 2998 > 100 µM

CCNC(=O)N(CC)CN(CC)C(=O)NCC
inactive: HOP-62 > 100 µM | MOLT-4 > 100 µM | OVCAR-8 > 100 µM | UACC-257 > 100 µM | NCI-H226 > 100 µM | OVCAR-3 > 100 µM | SW-620 > 100 µM | SF-268 > 100 µM | SNB-19 > 100 µM | SK-MEL-2 > 100 µM | LOX IMVI > 100 µM | HCC 2998 > 100 µM

CN1CCc2c1nc(-c1cccnc1)c1c2N(C)CC1
inactive: HOP-62 > 100 µM | NCI-H460 > 100 µM | MOLT-4 > 100 µM | OVCAR-8 > 100 µM | HOP-92 88.5 µM | UACC-257 > 100 µM | TK-10 > 100 µM | SK-MEL-5 > 100 µM | OVCAR-3 65.8 µM | SW-620 > 100 µM | SF-268 > 100 µM | SNB-19 > 100 µM | SK-MEL-2 > 100 µM | RXF 393 > 100 µM | LOX IMVI > 100 µM | HCC 2998 > 100 µM

Cn1cnc([N+](=O)[O-])c1Sc1ccccn1
inactive: HOP-62 > 100 µM | NCI-H460 > 100 µM | MOLT-4 38.5 µM | OVCAR-8 > 100 µM | HOP-92 > 100 µM | UACC-257 > 100 µM | TK-10 > 100 µM | SK-MEL-5 > 100 µM | NCI-H226 > 100 µM | OVCAR-3 > 100 µM | SW-620 > 100 µM | SF-268 > 100 µM | SNB-19 > 100 µM | SK-MEL-2 74.6 µM | LOX IMVI > 100 µM | HCC 2998 > 100 µM

O=C1CSC(C(/N=N/c2ccccc2)=C2Nc3ccccc3N2)=N1
inactive: HOP-62 23.7 µM | NCI-H460 38.6 µM | MOLT-4 10 µM | OVCAR-8 39.1 µM | HOP-92 18.5 µM | UACC-257 24.4 µM | TK-10 > 100 µM | SK-MEL-5 39.8 µM | NCI-H226 13.6 µM | OVCAR-3 27.4 µM | SW-620 93.5 µM | SF-268 36.1 µM | SNB-19 31.9 µM | SK-MEL-2 53.3 µM | LOX IMVI 52.1 µM | HCC 2998 > 100 µM

COc1ccccc1/C=C\c1cc(OC)c(OC)c(OC)c1
inactive: HOP-62 5.18 µM | NCI-H460 6.85 µM | MOLT-4 4.31 µM | OVCAR-8 24.5 µM | HOP-92 8.65 µM | UACC-257 31.6 µM | TK-10 43.6 µM | SK-MEL-5 4.33 µM | NCI-H226 19.2 µM | OVCAR-3 10.2 µM | SW-620 3.85 µM | SNB-19 39.4 µM | RXF 393 11 µM | LOX IMVI 9.59 µM

O=c1c(Cc2ccccc2)c(O)cc2n1CCC2
inactive: HOP-62 > 100 µM | NCI-H460 > 100 µM | MOLT-4 > 100 µM | OVCAR-8 > 100 µM | HOP-92 > 100 µM | UACC-257 > 100 µM | TK-10 > 100 µM | SK-MEL-5 > 100 µM | NCI-H226 > 100 µM | OVCAR-3 > 100 µM | SW-620 > 100 µM | SF-268 > 100 µM | SNB-19 > 100 µM | RXF 393 > 100 µM | LOX IMVI > 100 µM | HCC 2998 > 100 µM

— ChEMBL document CHEMBL1201862, “PubChem BioAssay data set” (2004)
